According to the supplement of paper PMC11451515:

Test system: SEM cells
Assay: cell viability relative to DMSO control; higher = less cytotoxic
Conditions: 48 h
Method in brief: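 Before seeding, each leukemia line was adapted for at least four passages in each medium. NOMO1 or SEM cells (500 cells/well) and P12-Ichikawa cells (1000 cells/well) went into 1536-well plates at 5 μl, then received library compounds in DMSO by pin dosing across 11 threefold concentrations, 47 μM to 0.79 nM. Readout was CellTiter-Glo One luminescence after 48 h at 37°C, and viability is given as a per-plate percentage of DMSO wells, with cell-free wells as background.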

[1] = HPLM + 10% dialyzed FBS, 0.000781 µM
[2] = HPLM + 10% dialyzed FBS, 0.00234 µM
[3] = HPLM + 10% dialyzed FBS, 0.00702 µM
[4] = HPLM + 10% dialyzed FBS, 0.0211 µM
[5] = HPLM + 10% dialyzed FBS, 0.0632 µM
[6] = HPLM + 10% dialyzed FBS, 0.19 µM
[7] = HPLM + 10% dialyzed FBS, 0.569 µM
[8] = HPLM + 10% dialyzed FBS, 1.71 µM
[9] = HPLM + 10% dialyzed FBS, 5.12 µM
[10] = HPLM + 10% dialyzed FBS, 15.4 µM
[11] = HPLM + 10% dialyzed FBS, 46.1 µM
[12] = RPMI 5 mM glucose + 10% FBS, 0.000781 µM
[13] = RPMI 5 mM glucose + 10% FBS, 0.00234 µM
[14] = RPMI 5 mM glucose + 10% FBS, 0.00702 µM
[15] = RPMI 5 mM glucose + 10% FBS, 0.0211 µM
[16] = RPMI 5 mM glucose + 10% FBS, 0.0632 µM
[17] = RPMI 5 mM glucose + 10% FBS, 0.19 µM
[18] = RPMI 5 mM glucose + 10% FBS, 0.569 µM
[19] = RPMI 5 mM glucose + 10% FBS, 1.71 µM
[20] = RPMI 5 mM glucose + 10% FBS, 5.12 µM
[21] = RPMI 5 mM glucose + 10% FBS, 15.4 µM
[22] = RPMI 5 mM glucose + 10% FBS, 46.1 µM
[23] = RPMI 5 mM glucose + 10% dialyzed FBS, 0.000781 µM
[24] = RPMI 5 mM glucose + 10% dialyzed FBS, 0.00234 µM
[25] = RPMI 5 mM glucose + 10% dialyzed FBS, 0.00702 µM
[26] = RPMI 5 mM glucose + 10% dialyzed FBS, 0.0211 µM
[27] = RPMI 5 mM glucose + 10% dialyzed FBS, 0.0632 µM
[28] = RPMI 5 mM glucose + 10% dialyzed FBS, 0.19 µM
[29] = RPMI 5 mM glucose + 10% dialyzed FBS, 0.569 µM
[30] = RPMI 5 mM glucose + 10% dialyzed FBS, 1.71 µM
[31] = RPMI 5 mM glucose + 10% dialyzed FBS, 5.12 µM
[32] = RPMI 5 mM glucose + 10% dialyzed FBS, 15.4 µM
[33] = RPMI 5 mM glucose + 10% dialyzed FBS, 46.1 µM

Row | SMILES | cell viability [1] [%] | cell viability [2] [%] | cell viability [3] [%] | cell viability [4] [%] | cell viability [5] [%] | cell viability [6] [%] | cell viability [7] [%] | cell viability [8] [%] | cell viability [9] [%] | cell viability [10] [%] | cell viability [11] [%] | cell viability [12] [%] | cell viability [13] [%] | cell viability [14] [%] | cell viability [15] [%] | cell viability [16] [%] | cell viability [17] [%] | cell viability [18] [%] | cell viability [19] [%] | cell viability [20] [%] | cell viability [21] [%] | cell viability [22] [%] | cell viability [23] [%] | cell viability [24] [%] | cell viability [25] [%] | cell viability [26] [%] | cell viability [27] [%] | cell viability [28] [%] | cell viability [29] [%] | cell viability [30] [%] | cell viability [31] [%] | cell viability [32] [%] | cell viability [33] [%]
1 | CNC(=O)C1=CC=C(C)C(=C1)N2C(=C/C(=C(/Br)C2=O)OCC3=C(F)C=C(F)C=C3)\C | 109 | 116 | 123 | 106 | 126 | 123 | 131 | 130 | 125 | 124 | 120 | 110 | 127 | 124 | 122 | 124 | 116 | 131 | 139 | 116 | 113 | 101 | 115 | 118 | 136 | 136 | 134 | 155 | 148 | 131 | 109 | 120 | 103
2 | CC/1=C(\O)C(=O)\C=C2/C1=C/C=C3\[C@@]2(C)CC[C@@]4(C)[C@@H]5C[C@@](C)(CC[C@]5(C)CC[C@]34C)C(O)=O | 109 | 102 | 102 | 119 | 113 | 109 | 118 | 97.6 | 10.9 | 8.14 | 5.78 | 126 | 97.9 | 102 | 117 | 118 | 111 | 110 | 85.7 | 8.55 | 7.7 | 6.91 | 97.7 | 91.4 | 103 | 79.8 | 112 | 89 | 108 | 61.1 | 8.59 | 9.09 | 6.92
3 | N=C1N[C@H]2[C@H](CS[C@H]2CCCCC(=O)O)N1 | 80.4 | 109 | 91.8 | 97.2 | 111 | 108 | 25.3 | 112 | 117 | 112 | 109 | 87.6 | 115 | 108 | 106 | 107 | 107 | 15.4 | 115 | 110 | 115 | 121 | 108 | 105 | 111 | 118 | 117 | 101 | 18.4 | 121 | 122 | 124 | 128
4 | COC(=O)\C1=C\CCN(C)C1 | 113 | 109 | 106 | 113 | 102 | 117 | 103 | 105 | 109 | 114 | 106 | 107 | 103 | 106 | 109 | 104 | 111 | 111 | 110 | 98.8 | 99.8 | 110 | 101 | 111 | 109 | 115 | 127 | 106 | 114 | 124 | 110 | 106 | 105
5 | CC(C)Cc1ccc(C(C)C(=O)O)cc1 (stereo unspecified) | 68.7 | 84.7 | 80.1 | 78.6 | 84.9 | 90.7 | 82.2 | 78.3 | 71.3 | 85.6 | 26.4 | 90.1 | 69.4 | 80.9 | 91.3 | 89.4 | 81.9 | 98.8 | 87 | 95.4 | 77.2 | 22.8 | 93.5 | 84.4 | 89.5 | 90.9 | 87.5 | 98.3 | 99.5 | 98.6 | 100 | 77.5 | 35.7
6 | N#C/N=C(\NCCCCCCOc1ccc(Cl)cc1)Nc1ccncc1 | 18.5 | 14.6 | 11.7 | 11.6 | 10.7 | 9.6 | 9.68 | 8.04 | 7.4 | 6.52 | 4.48 | 11 | 12.1 | 9.46 | 9.27 | 8.63 | 8.09 | 6.61 | 4.33 | 4.15 | 3.83 | 1.91 | 15 | 11 | 9.5 | 8.99 | 8.27 | 8.14 | 7.35 | 6.51 | 5.93 | 4.36 | 2.76
7 | CCOC(=O)/C=C/[C@H](C[C@@H]1CCNC1=O)NC(=O)[C@@H](CC(=O)[C@@H](NC(=O)c1cc(C)on1)C(C)C)Cc1ccc(F)cc1 | 90.8 | 101 | 103 | 90.4 | 111 | 116 | 110 | 116 | 115 | 113 | 105 | 115 | 121 | 118 | 79.8 | 127 | 116 | 123 | 127 | 115 | 97.3 | 104 | 100 | 120 | 119 | 82.5 | 136 | 133 | 128 | 127 | 129 | 132 | 108
8 | Nc1ncnc2c1c(-c1cccc(OCc3ccccc3)c1)cn2C1CC(CN2CCCC2)C1 (stereo unspecified) | 97.6 | 112 | 120 | 108 | 113 | 111 | 89.8 | 83.1 | 63.8 | 45.4 | 29.6 | 89.4 | 113 | 125 | 115 | 128 | 121 | 103 | 95.3 | 87.8 | 54.8 | 31.5 |  |  |  |  |  |  |  |  |  |  | 
9 | COc1ncc(-c2ccc3c(Nc4cc(Oc5cc(F)cc(F)c5)cc(C(=O)O)c4)c([S+](=O)([O-])NC4CC4)cnc3c2)c(OC)n1 | 90.4 | 78.2 | 77.5 | 86 | 85.2 | 79.4 | 88.1 | 82.2 | 75.5 | 78 | 71.5 | 135 | 107 | 117 | 133 | 130 | 119 | 138 | 100 | 109 | 119 | 113 | 102 | 83.5 | 79.7 | 88.6 | 85 | 89.7 | 97.5 | 75.4 | 82.1 | 104 | 67.9
10 | CCOC(=O)\C1=C\[C@@H](OC(CC)CC)[C@H](NC(C)=O)[C@@H](N)C1 | 73.2 | 82.3 | 95.9 | 97.5 | 77.9 | 102 | 91.4 | 70.8 | 101 | 96.8 | 56 | 77.6 | 85.1 | 93.3 | 99.1 | 85 | 92.7 | 96.8 | 78.8 | 88.8 | 111 | 89.3 | 75.6 | 82.7 | 92.3 | 84.9 | 75.5 | 98.2 | 102 | 73.7 | 97.7 | 104 | 68.3
11 | COc1cccc2c1CCCC2CCCN1CCN(C2CCCCC2)CC1 (stereo unspecified) | 88.4 | 85 | 80.9 | 91.1 | 91.6 | 110 | 96.9 | 88.8 | 97.1 | 83.5 | 55.3 | 87.8 | 85.6 | 89.9 | 91.1 | 101 | 107 | 103 | 97 | 81.3 | 79.1 | 42.9 | 87.7 | 83.3 | 97 | 102 | 111 | 114 | 104 | 91 | 96.7 | 87.6 | 52.5
12 | C[C@]12CC[C@H]3[C@@H](CCC/4=C/C(=O)CC[C@]34C)[C@@H]1CC[C@@H]2OC(=O)CCC5CCCC5 | 90 | 92.3 | 99.1 | 102 | 104 | 99.9 | 95.6 | 104 | 101 | 97.1 | 111 | 99.7 | 86.2 | 109 | 105 | 122 | 115 | 131 | 101 | 124 | 98.8 | 94.6 | 99.5 | 105 | 101 | 113 | 104 | 104 | 108 | 121 | 124 | 90.6 | 109
13 | c1ccc(-c2oc3ncnc(NC[C@@H]4CCCO4)c3c2-c2ccccc2)cc1 | 115 | 115 | 114 | 121 | 126 | 130 | 125 | 134 | 128 | 121 | 79.4 | 111 | 112 | 109 | 103 | 108 | 110 | 105 | 106 | 112 | 99.9 | 61.1 | 121 | 129 | 115 | 118 | 104 | 136 | 111 | 112 | 118 | 124 | 69.6
14 | CCN(c1ccccc1)c1cc(NC)[n+](C)c(C)n1 | 110 | 107 | 108 | 101 | 107 | 114 | 99.5 | 116 | 104 | 102 | 97.9 | 111 | 97.2 | 96.4 | 105 | 99.5 | 101 | 87.7 | 100 | 105 | 95.3 | 101 | 101 | 105 | 97.4 | 108 | 99.9 | 97.4 | 105 | 99.1 | 107 | 106 | 100
